# Laboratory results: patent US11306078B2, “Piperidine CXCR7 receptor modulators” (IDORSIA PHARMACEUTICALS LTD., priority 2016, dated 2022)
# Target: human chemokine receptor CXCR7 (Homo sapiens (Human), UniProt P25106)
# Assay: Tango CXCR7-bla U2OS beta-arrestin recruitment assay (beta-lactamase reporter, FRET), antagonism of CXCL12/SDF1-α;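 further: compounds preincubated 15 min before CXCL12 addition, then 22 h at 37 °C, FRET emission ratio read with CCF4-AM substrate after 2 h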
# Type: cell-based
# Details: antagonistic effect on CXCR7; Tango CXCR7-bla U2OS cells, CXCL12/SDF1-α at its EC80
# Sequence of human chemokine receptor CXCR7 (P25106 whole entry): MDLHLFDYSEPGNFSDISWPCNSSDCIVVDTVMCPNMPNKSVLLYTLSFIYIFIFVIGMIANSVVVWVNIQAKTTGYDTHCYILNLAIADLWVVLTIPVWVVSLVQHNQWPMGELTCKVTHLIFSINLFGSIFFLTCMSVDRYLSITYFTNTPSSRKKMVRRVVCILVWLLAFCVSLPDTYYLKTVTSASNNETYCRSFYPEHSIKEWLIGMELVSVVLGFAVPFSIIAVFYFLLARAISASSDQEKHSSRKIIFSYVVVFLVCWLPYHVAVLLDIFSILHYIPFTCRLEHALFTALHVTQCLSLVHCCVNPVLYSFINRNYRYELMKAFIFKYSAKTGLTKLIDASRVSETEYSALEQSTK
row,IC50 [µM],Structure (SMILES)
1,0.114,"COCC(C)(C)NC(=O)[C@@H]1CN(C2CCCCC2)CC[C@H]1NC(=O)c1cc(-c2c(F)cc(F)cc2F)on1 (single isomer, unassigned) [Example 1.111b, (3R*,4R*)-1-Cyclohexyl-4-{[5-(2,4,6-trifluoro-phenyl)-isoxazole-3-carbonyl]-amino}-piperidine-3-carboxylic acid (2-methoxy-1,1-dimethyl-ethyl)-amide]"
2,0.561,"COCC(C)(C)NC(=O)[C@@H]1CN(CC2CC2)CC[C@H]1NC(=O)c1cc(-c2c(F)cc(F)cc2F)on1 (single isomer, unassigned) [Example 1.113a, (3R*,4R*)-1-Cyclopropylmethyl-4-{[5-(2,4,6-trifluoro-phenyl)-isoxazole-3-carbonyl]-amino}-piperidine-3-carboxylic acid (2-methoxy-1,1-dimethyl-ethyl)-amide]"
3,0.048,"COCC(C)(C)NC(=O)[C@@H]1CN(CC2CC2)CC[C@H]1NC(=O)c1cc(-c2c(F)cc(F)cc2F)on1 (single isomer, unassigned) [Example 1.113b, (3R*,4R*)-1-Cyclopropylmethyl-4-{[5-(2,4,6-trifluoro-phenyl)-isoxazole-3-carbonyl]-amino}-piperidine-3-carboxylic acid (2-methoxy-1,1-dimethyl-ethyl)-amide]"
4,0.742,"C[C@@H](NC(=O)[C@@H]1CN(C2CCCCC2)CC[C@H]1NC(=O)c1cc(-c2c(F)cc(F)cc2F)on1)c1ccccn1 (single isomer, unassigned) [Example 1.121a, (3R*,4R*)-1-Cyclohexyl-4-{[5-(2,4,6-trifluoro-phenyl)-isoxazole-3-carbonyl]-amino}-piperidine-3-carboxylic acid ((R)-1-pyridin-2-yl-ethyl)-amide]"
5,0.002,"C[C@@H](NC(=O)[C@@H]1CN(C2CCCCC2)CC[C@H]1NC(=O)c1cc(-c2c(F)cc(F)cc2F)on1)c1ccccn1 (single isomer, unassigned) [Example 1.121b, (3R*,4R*)-1-Cyclohexyl-4-{[5-(2,4,6-trifluoro-phenyl)-isoxazole-3-carbonyl]-amino}-piperidine-3-carboxylic acid ((R)-1-pyridin-2-yl-ethyl)-amide]"
6,0.525,"C[C@@H](NC(=O)[C@@H]1CN(C2CCCC2)CC[C@H]1NC(=O)c1cc(-c2c(F)cc(F)cc2F)on1)c1ccccn1 (single isomer, unassigned) [Example 1.122a, (3R*,4R*)-1-Cyclopentyl-4-{[5-(2,4,6-trifluoro-phenyl)-isoxazole-3-carbonyl]-amino}-piperidine-3-carboxylic acid ((R)-1-pyridin-2-yl-ethyl)-amide]"

row,Structure (SMILES),IC50 [µM]
1,"C[C@@H](NC(=O)[C@H]1CN(C2CCCCC2)CC[C@@H]1NC(=O)c1cn(-c2ccc(F)cc2F)nn1)c1ccccn1 (single isomer, unassigned) [Example 1.117a, (3S,4S)-1-Cyclohexyl-4-{[1-(2,4-difluoro-phenyl)-1H-[1,2,3]triazole-4-carbonyl]-amino}-piperidine-3-carboxylic acid ((R)-1-pyridin-2-yl-ethyl)-amide or (3R,4R)-1-Cyclohexyl-4-{[1-(2,4-difluoro-phenyl)-1H-[1,2,3]triazole-4-carbonyl]-amino}-piperidine-3-carboxylic acid ((R)-1-pyridin-2-yl-ethyl)-amide]",0.039
2,"C[C@@H](NC(=O)[C@H]1CN(C2CCCC2)CC[C@@H]1NC(=O)c1cn(-c2ccc(F)cc2F)nn1)c1ccccn1 (single isomer, unassigned) [Example 1.118a, (3S,4S)-1-Cyclopentyl-4-{[1-(2,4-difluoro-phenyl)-1H-[1,2,3]triazole-4-carbonyl]-amino}-piperidine-3-carboxylic acid ((R)-1-pyridin-2-yl-ethyl)-amide or (3R,4R)-1-Cyclopentyl-4-{[1-(2,4-difluoro-phenyl)-1H-[1,2,3]triazole-4-carbonyl]-amino}-piperidine-3-carboxylic acid ((R)-1-pyridin-2-yl-ethyl)-amide]",0.075
